Source: patent publication US12023421B2, “Medical devices for continuous delivery of therapeutic agents” (Adenopaint LLC, priority 2019, dated 2024)
Values after ≈ are worked out from the molar mass of the structure shown.

What was measured:
Yucatan mini-pigs = assay: Acetylcholine-induced coronary vasoconstriction (no-reflow) in the pig (Example 6, second protocol); assay type: in vivo; conditions: 0.3 to 1.0 mg/min infused into the LAD for 20 to 30 min; preliminary studies
Experimental: Animal Studies: All porcine studies were approved by Institutional Animal Care and the Committee of Synchrony Labs LLC, NC. Yucatan mini pigs (25 to 30 Kg) were premeditated with Telazol (5 mg/Kg). Anesthesia was maintained with 1% isoflurane and supplemental oxygen to maintain a pH of 7.4±0.6. Animals received aspirin 300 mg orally for three days prior to the study and were anticoagulated throughout the procedure with heparin (150 units/kg) to maintain ACT greater than 300. Heart rate, EKG changes and blood pressure were monitored continuously utilizing leads I, AVF and AVL with a 6 F sheath in the left femoral artery. […] Coronary blood flow velocity (CFV) was measured utilizing a 0.014-inch Doppler flowwire (Combowire, Volcano Corporation, Rancho Cordova, CA, USA) and dedicated software. CFV was measured as a continuous average pulse wave velocity over 4 seconds and mean values were recorded every 60 seconds.
In the second protocol the ability of the wire to prevent and reverse intense vasoconstriction induced by intracoronary administration of acetylcholine (Ach) was evaluated. […] In other experiments, we evaluated whether an adenosine-releasing wire could prevent the NRF by placing the adenosine-loaded wire initially into the LAD. […]
For statistical analyses, data are expressed as mean±SEM. […]

[1] = In vitro drug elution from coated guidewires in phosphate-buffered saline at 37° C. (UV 260 nm); assay type: physicochemical
Experimental: FIG. 4 illustrates representative time release of a therapeutic agent, adenosine, from the distal 10 cm of three guidewires with two coats of PVA/PVP polymer cured with 2 freeze/thaw cycles. The inner therapeutic coat was a 7.5% (w/w) of PVA/PVP with 1.5 mg of adenosine added as described in the application. The outer barrier layer was made of 10.0% (w/w) of PVA/PVP. The guidewire was placed in a beaker containing phosphate-buffered saline at 37° C. that was constantly stirred with a magnetic device. Samples were taken periodically from the beaker and analyzed for adenosine amount by UV spectrophotometry (absorption at 260 nm). Note the complete elution of the drug in a curvilinear fashion over 60 minutes.
Note that elution was more rapid with greater than 90% eluted over 20 minutes.
FIG. 6 illustrates a representative example of an extremely rapid elution of another drug diltiazem utilizing a polymer with a ratio of PVA/PVAC and two freeze/thaw cycles. The drug was completely eluted over 10 minutes.
Utilizing the same protocol as Example 1, the freeze/thaw cycles were increased to 3-8 and the barrier concentration was increased to 15.0% (w/w). Utilizing adenosine as the prototype therapeutic agent the elution profile was increased with the majority of drug elution occurring in 30 min.

[2] = in plasma or blood; cited from earlier work
[3] = Particle size stability of jet-milled adenosine in hydrogel (laser diffraction and optical microscopy); assay type: physicochemical; conditions: after one week in the hydrogel; particles less than 5 microns
Experimental: Next, the inner drug layer was prepared. In this regard, a 20% w/w solution of PVA/PVP (99:1 mass ratio) in DI water was prepared and autoclaved for 1 hr while stirring. This yielded a supersaturated solution which was homogeneous and free of bubbles. Using a water bath, the temperature of the PVA/PVP solution was maintained at 65° C. In order to create a sufficient drug load on the wire, a 25% concentration of adenosine was used in the drug layer. Adenosine has poor solubility in water ([…]) and commercial adenosine has a mean particle size of 55 microns which would have compromised the lubricity of the wire. Utilizing a two-pass jet-milling process, the solid phase adenosine particles were reduced in size to less than 5 microns. Micronized adenosine was mixed in DI water, sonicated for 15 min and then added to the PVA/PVP mixture and the PVA/PVP/adenosine mixture was stirred until a homogeneous solution was obtained. […] Next, the guidewire coated with the PEG-silanol primer was coated with the adenosine-containing hydrogel. Multiple hydroxyl groups in the hydrogel form hydrogen bonds with multiple ether oxygens in the primer, thus creating an extensive network of hydrogen bonds between the drug-containing hydrogel layer and the primer layer (FIG. 14, Reaction 4).

coronary flow velocity = conditions: continuous infusion into the LAD at 50 μg/kg/min; previous studies; cited from earlier work
[4] = cited from earlier work
[5] = In vitro release studies in 0.9% saline at 37° C. (Example 6); assay type: physicochemical
Experimental: In vitro release studies were performed in 0.9% saline rather than in plasma or blood because adenosine has a short half-life (seconds) in the latter two media making detection difficult. Tubes containing 15 ml saline were maintained at 37° C. and 10 cm of the spaced coiled section of the guidewire was placed serially in tubes for 0 to 5, 5 to 10, 10 to 20, 20 to 30, 30 to 40, 40 to 50, and 50 to 60 minutes. One ml samples were then taken from the tube to measure the concentration of adenosine by spectrophotometry (Jackson E K, Mi Z, Koehler M T, Carcillo J A Jr, Herzer W A. Injured erythrocytes release adenosine deaminase into the circulation. J Pharmacol Exp Ther 1996; 279: 1250-60).

## CC(=O)OCC[N+](C)(C)C [Ach, acetylcholine]
Yucatan mini-pigs
  reduction in CBFV: ~80%

## Nc1ncnc2c1ncn2[C@@H]1O[C@H](CO)[C@@H](O)[C@H]1O [adenosine, Adenosine]
[1]; Example 2, protocol of Example 1 with 3-8 freeze/thaw cycles and barrier concentration 15.0% (w/w)
  time in which the majority of drug elution occurred: 30 min
[1]; FIG. 4, distal 10 cm of guidewires, inner coat 7.5% (w/w) PVA/PVP with 1.5 mg adenosine, outer barrier 10.0% (w/w) PVA/PVP, 2 freeze/thaw cycles, curvilinear
  time of complete elution of the drug from guidewire: 60 min
[1]; FIG. 5, 8 freeze/thaw cycles, polymer 10% inner and 15% outer layer
  drug eluted over 20 minutes: greater than 90%
[1]; FIG. 7, guidewires coated with polymer mixture of 3:1 and 1:1 ratios of PVAC to PVA
  release profile: optimal for a typical coronary interventional procedure
[2]
  half-life: seconds
[3]
  particle size stability in the hydrogel: stable
Coronary flow velocity
  increase in CFV: approximately 250%
[4]
  solubility in water: 80 mg/mL (≈ 299 mM)
[5]; Example 6 guidewires
  time by which most of the remainder was released: ≤ 40 min
[5]; Example 6 guidewires (PVA/PVP drug layer, PVA/PVAc 1:3 barrier), over 60 min
  total amount of released adenosine: 2.7±0.2 mg/10 cm length of wire
[5]; Example 6 guidewires, relative to 60-min timepoint
  adenosine released in the first 20 min: approximately 60%

## COc1ccc([C@@H]2Sc3ccccc3N(CCN(C)C)C(=O)[C@@H]2OC(C)=O)cc1 [diltiazem]
[1]; FIG. 6, polymer with a ratio of PVA/PVAC, two freeze/thaw cycles
  time of complete elution of the drug from guidewire: 10 min
